From paper PMC8333425, “Discovery of a dual Ras and ARF6 inhibitor from a GPCR endocytosis screen” (Nature Communications, 2021)
Values joined by “and” are separate entries in the source; they are usually repeats but may differ in a detail not shown here. Identical values can stand only once.

Biological target: T1, β-arrestin/AP-2 complex (Homo sapiens, UniProt P63010)
T1 construct: expressed in transfected cells; host or cells: HEK293SL
T1 sequence (P63010 1-937): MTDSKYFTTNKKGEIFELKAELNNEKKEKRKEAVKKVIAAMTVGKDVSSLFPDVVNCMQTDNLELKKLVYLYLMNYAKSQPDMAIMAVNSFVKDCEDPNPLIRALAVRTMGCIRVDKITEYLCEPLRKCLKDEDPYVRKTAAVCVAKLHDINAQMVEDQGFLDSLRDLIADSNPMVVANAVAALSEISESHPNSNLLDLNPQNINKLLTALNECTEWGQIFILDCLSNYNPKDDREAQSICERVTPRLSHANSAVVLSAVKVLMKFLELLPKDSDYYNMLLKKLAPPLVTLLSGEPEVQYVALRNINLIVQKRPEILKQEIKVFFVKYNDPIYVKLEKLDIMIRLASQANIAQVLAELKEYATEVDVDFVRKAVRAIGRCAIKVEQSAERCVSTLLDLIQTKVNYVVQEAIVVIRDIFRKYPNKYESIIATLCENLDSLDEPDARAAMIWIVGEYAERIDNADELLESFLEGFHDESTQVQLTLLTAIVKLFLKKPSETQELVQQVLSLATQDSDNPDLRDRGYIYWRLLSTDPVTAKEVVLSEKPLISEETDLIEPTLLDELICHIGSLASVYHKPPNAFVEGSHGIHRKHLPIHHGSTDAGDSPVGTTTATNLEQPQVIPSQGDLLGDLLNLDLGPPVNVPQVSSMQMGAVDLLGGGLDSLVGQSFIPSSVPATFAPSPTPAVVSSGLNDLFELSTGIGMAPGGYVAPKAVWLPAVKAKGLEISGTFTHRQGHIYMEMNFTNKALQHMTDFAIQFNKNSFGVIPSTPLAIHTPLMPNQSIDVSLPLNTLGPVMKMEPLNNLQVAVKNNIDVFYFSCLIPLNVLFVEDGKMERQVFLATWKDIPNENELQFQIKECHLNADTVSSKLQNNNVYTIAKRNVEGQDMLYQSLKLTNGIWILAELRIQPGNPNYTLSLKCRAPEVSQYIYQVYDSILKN
Assay: BRET sensor of β-arrestin2 binding to AP-2 (β2-Adaptin-YFP), AT1R-mediated
Type: cell-based
Details: for AngII-promoted BRET, binding of β-arrestin2 to AP-2: individual experiments
Protocol: HEK293 cells were transfected with a BRET sensor that monitors the interaction between β-arrestins and the β-appendage of AP-2 (Fig. 2a)[26],[33]. […] The small GTPase ARF6, which binds β-arrestins and facilitates AP-2 and clathrin recruitment at the PM, is also necessary for CCPs initiation and receptor internalization. Therefore, ARF6 activity was assessed using the protein-3 binding domain (PBD) of the golgi-associated, gamma adaptin ear-containing, ARF-binding protein 3 (GGA3) fused to GST (GST-GGA3-PBD) in a pull-down assay, which allows the detection of GTP-bound ARF6 in cells[34] (Fig. 2b). […] This inhibition was selective for ARF6 since 21 had no effect on AT1R-dependent ARF1 activation (Supplementary Fig. 2a). We also devised a BRET assay to quantitatively assess 21’s action on ARF activity. The ARF BRET assay was created using the GGA3-PBD fused to RlucII (GGA3-PBD-RlucII) and the rGFP anchored at the PM (rGFP-CAAX) (Supplementary Fig. 3a). […] 21 blocked ARF’s activation by 40–60% following AT1R stimulation (Fig. 2c).
HEK293SL cells were seeded at a density of 7.5 × 10^5 cells per 100-mm dish and 24 h later, transiently transfected as such. For receptor internalization experiments, cells were transfected with 0.12 μg AT1R-RlucII, B2R-RlucII, or β2AR-RlucII and 0.48 μg of either rGFP-CAAX (to assess removal from the PM) or rGFP-FYVE (to assess accumulation in the endosomes). For β-arrestin recruitment assays, cells were transfected with 0.48 μg of receptor-YFP along with 0.12 μg of β-arrestin-RlucII. For β-arrestin/AP-2 binding experiments, cells were transfected with 1 μg Flag-AT1R, 1 μg β2-Adaptin-YFP, and 0.12 μg β-arrestin2-RlucII. For G protein activation, cells were transfected with 3 μg of sp-Flag-AT1R along with either 4.5 μg of the Gαq-polycistronic BRET sensor or 0.24 μg of the Gαi3-RlucII and 0.6 μg of GFP10-Gγ2 and Gβ1 sensors or 0.12 μg PKN-RBD-RlucII and 0.48 μg of rGFP-CAAX. For PKC activation, cells were transfected with 3 μg of sp-Flag-AT1R and 0.18 μg of the PKC sensor. For GTPase activation experiments, cells were transfected with 1 μg Flag-AT1R, 0.48 μg of rGFP-CAAX, and either 0.12 μg of GGA3-PBD-RlucII, PAK-CRIB-RlucII or Raf-RBD-RlucII. For biosensor validation experiments, cells were additionally transfected with 500 ng Flag-K-Ras-WT, Flag-K-Ras-G12V, Flag-K-Ras-SOS-CAAX, HA-ARF6-WT, HA-ARF6-T27N, Myc-Rac1-WT, Myc-Rac1-Q61L or Myc-Rac1-T17N. For PI3K/Akt activation experiments, cells were transfected with 0.48 μg of rGFP-CAAX and 0.12 μg of Akt (PH)-RlucII. After 18 h of transfection, the media was replaced and cells were divided for subsequent experiments. Cells were detached and seeded onto poly-L-ornithine-coated 96-well flat white bottom plates (BrandTech Scientific) at a density of 2.5 × 10^4 cells per well in media. The next day, cells were washed once with Tyrode’s buffer (140 mM NaCl, 2.7 mM KCl, 1 mM CaCl2, 12 mM NaHCO3, 5.6 mM D-glucose, 0.5 mM MgCl2, 0.37 mM NaH2PO4, 25 mM HEPES, pH 7.4) and left in Tyrode’s buffer. For kinetics of β-arrestin recruitment or β-arrestin binding to receptor and AP-2 experiments, cells were serum starved for 30 min, pretreated with 21 (50 µM) or Barbadin (100 µM) for 30 min, stimulated with 100 nM AngII or 1 µM BK and BRET signals were monitored at indicated times using a Victor X Light plate reader (PerkinElmer). Coelenterazine H (final concentration of 5 µM) was added 3–5 min prior to BRET measurements. Filter set was 460/80 nm and 535/30 nm for detecting the RlucII Renilla luciferase (donor) and YFP (acceptor) light emissions, respectively. The BRET ratio was determined by calculating the ratio of the light emitted by YFP over the light emitted by the RlucII. For G protein activation, cells were serum starved, pretreated with compounds for 30 min, stimulated with 100 nM AngII for 2 min (Gαq, Gαi3, and Rho sensors) or 5 min (PKC sensor). […]

Row | SMILES | inhibition at 50 µM (21 at 50 µM, read-out: inhibition of the AngII-mediated β-arrestin/AP-2 complex formation) | AngII-promoted BRET, binding of β-arrestin2 to AP-2 (AngII + Comp 21 (50μM), time 0 min) | AngII-promoted BRET, binding of β-arrestin2 to AP-2 (AngII + Comp 21 (50μM), time 2 min) | AngII-promoted BRET, binding of β-arrestin2 to AP-2 (AngII + Comp 21 (50μM), time 4 min) | AngII-promoted BRET, binding of β-arrestin2 to AP-2 (AngII + Comp 21 (50μM), time 8 min) | AngII-promoted BRET, binding of β-arrestin2 to AP-2 (AngII + Comp 21 (50μM), time 12 min) | AngII-promoted BRET, binding of β-arrestin2 to AP-2 (AngII + Comp 21 (50μM), time 20 min) | AngII-promoted BRET, binding of β-arrestin2 to AP-2 (AngII + Comp 21 (50μM), time 24 min) | AngII-promoted BRET, binding of β-arrestin2 to AP-2 (AngII + Barbadin (100 μM), time 0 min) | AngII-promoted BRET, binding of β-arrestin2 to AP-2 (AngII + Barbadin (100 μM), time 2 min) | AngII-promoted BRET, binding of β-arrestin2 to AP-2 (AngII + Barbadin (100 μM), time 4 min) | AngII-promoted BRET, binding of β-arrestin2 to AP-2 (AngII + Barbadin (100 μM), time 8 min) | AngII-promoted BRET, binding of β-arrestin2 to AP-2 (AngII + Barbadin (100 μM), time 12 min) | AngII-promoted BRET, binding of β-arrestin2 to AP-2 (AngII + Barbadin (100 μM), time 20 min) | AngII-promoted BRET, binding of β-arrestin2 to AP-2 (AngII + Barbadin (100 μM), time 24 min) | inhibition of the formation of the β-arrestin/AP-2 complex mediated by AT1R (Barbadin 100 µM)
1 | CC(C)C(=O)N1CCN(c2ccc(NC(=O)c3cc4ccccc4o3)cc2Cl)CC1 [Compound 21] | ≤ 20% | 0 | 0.0291 and 0.02266 and 0.02708 | 0.03981 and 0.03342 and 0.03976 | 0.0471 and 0.04211 and 0.04647 | 0.04695 and 0.03931 and 0.04772 | 0.04571 and 0.04297 and 0.04991 | 0.04875 and 0.04367 and 0.04987 |  |  |  |  |  |  |  | 
2 | Nn1cnc2scc(-c3ccc(Cc4ccccc4)cc3)c2c1=O [Barbadin, reference compound] |  |  |  |  |  |  |  |  | 0 | 0.00931 and 0.01844 and 0.00859 | 0.01939 and 0.02951 and 0.01857 | 0.01773 and 0.0324 and 0.02267 | 0.01829 and 0.0336 and 0.02027 | 0.02374 and 0.03345 and 0.02061 | 0.01867 and 0.03563 and 0.02365 | more than 50%
